Counter-ions that a name gives are not always drawn.
How the values were obtained:
melanoma UACC-62 = test: NCI screen cytotoxicity, melanoma UACC-62; type: cell-based; conditions: Homo sapiens, UACC-62, 48 h, read-out: cytotoxicity (GI50) melanoma UACC-62
lung HOP-62 = test: NCI screen cytotoxicity, lung HOP-62; type: cell-based; conditions: Homo sapiens, HOP-62, 48 h, read-out: cytotoxicity (GI50) lung HOP-62
prostate DU-145 = test: NCI screen cytotoxicity, prostate DU-145; type: cell-based; conditions: Homo sapiens, DU-145, 48 h, read-out: cytotoxicity (GI50) prostate DU-145
colon HCT-116 = test: NCI screen cytotoxicity, colon HCT-116; type: cell-based; conditions: Homo sapiens, HCT-116, 48 h, read-out: cytotoxicity (GI50) colon HCT-116
renal SN12C = test: NCI screen cytotoxicity, renal SN12C; type: cell-based; conditions: Homo sapiens, 48 h, read-out: cytotoxicity (GI50) renal SN12C
SV40 DNA = test: DNA unwinding assay; type: biochemical; conditions: for ability to unwind/intercalate into free DNA: range of tested concentrations 1-100 μM
human recombinant Top1 = biological target: T1, human recombinant Top1 (Homo sapiens, UniProt P11387); test: Top1-mediated DNA cleavage assay; type: biochemical; conditions: for Top1 cleavage: semiquantitative, relative Top1 inhibitory potency vs compounds 1 and 2, 117-bp DNA fragment; for concentration dependence of DNA cleavage band intensity: 0.1-100 μM, side-by-side comparison (Figure 4)
T1 sequence (P11387 1-765): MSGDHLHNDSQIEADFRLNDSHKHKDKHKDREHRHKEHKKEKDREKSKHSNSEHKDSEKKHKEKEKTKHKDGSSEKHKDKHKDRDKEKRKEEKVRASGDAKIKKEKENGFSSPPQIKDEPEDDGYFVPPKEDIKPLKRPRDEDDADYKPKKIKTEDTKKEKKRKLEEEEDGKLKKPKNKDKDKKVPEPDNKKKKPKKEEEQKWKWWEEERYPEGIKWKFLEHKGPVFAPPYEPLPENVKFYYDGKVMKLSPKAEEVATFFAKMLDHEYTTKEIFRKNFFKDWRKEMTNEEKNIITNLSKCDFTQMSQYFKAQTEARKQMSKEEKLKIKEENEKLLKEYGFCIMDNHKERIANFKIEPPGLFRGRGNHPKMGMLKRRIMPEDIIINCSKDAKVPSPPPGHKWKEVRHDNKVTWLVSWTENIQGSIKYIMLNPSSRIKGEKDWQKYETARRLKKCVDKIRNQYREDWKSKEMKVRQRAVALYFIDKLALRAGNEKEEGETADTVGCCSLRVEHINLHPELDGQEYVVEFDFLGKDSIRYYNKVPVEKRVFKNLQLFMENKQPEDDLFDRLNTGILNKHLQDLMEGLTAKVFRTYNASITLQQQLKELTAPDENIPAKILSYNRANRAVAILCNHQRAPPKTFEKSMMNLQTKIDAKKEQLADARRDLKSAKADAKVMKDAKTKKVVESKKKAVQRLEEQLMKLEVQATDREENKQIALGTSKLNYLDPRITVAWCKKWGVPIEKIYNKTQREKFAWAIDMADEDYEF

[1] = system: all human cancer cell lines successfully tested; test: NCI screen, mean graph midpoint; type: cell-based; conditions: 48 h, read-out: cytotoxicity (GI50) MGM

| SMILES | Top1 cleavage (human recombinant Top1) | GI50 [1] [µM] | further results |
| --- | --- | --- | --- |
| CC[C@@]1(O)C(=O)OCc2c1cc1n(c2=O)Cc2cc3ccccc3nc2-1 [Compound 1, camptothecin] | – | – | GI50 (melanoma UACC-62): 0.01 µM; GI50 (lung HOP-62): 0.01 µM; GI50 (prostate DU-145): 0.01 µM; GI50 (colon HCT-116): 0.03 µM; GI50 (renal SN12C): 0.02 µM |
| O=C1c2cccnc2-c2[nH]c(=O)c3cc([N+](=O)[O-])ccc3c21 [Compound 17, 7-Aza-5,6-dihydro-3-nitro-5,11-dioxo-11H-indeno[1,2-c]isoquinoline] | – | – | ability to unwind/intercalate into free DNA (SV40 DNA): allow intercalation into DNA in the absence of Top1 |
| CN(C)CCCn1c2c(c3ccccc3c1=O)C(=O)c1cccnc1-2 [Compound 18, 7-Aza-5,6-dihydro-6-(3-dimethylaminopropyl)-5,11-dioxo-11H-indeno[1,2-c]isoquinoline Hydrochloride] | +++ | 1.78 | – |
| COc1cc2c3c(n(CCCN(C)C)c(=O)c2cc1OC)-c1ncccc1C3=O [Compound 19, 7-Aza-5,6-dihydro-6-(3-dimethylaminopropyl)-2,3-dimethoxy-5,11-dioxo-11H-indeno[1,2-c]isoquinoline Hydrochloride] | +++ | 4.5 | inhibition of Top1-mediated DNA relaxation (SV40 DNA; at highest tested concentration, 100 μM): completely inhibits the Top1-mediated DNA relaxation |
| CN(C)CCCn1c2c(c3ccc([N+](=O)[O-])cc3c1=O)C(=O)c1cccnc1-2 [Compound 20, 7-Aza-5,6-dihydro-6-(3-dimethylaminopropyl)-3-nitro-5,11-dioxo-11H-indeno[1,2-c]isoquinoline Hydrochloride] | – | 1.86 | – |
| O=C1c2cccnc2-c2c1c1ccccc1c(=O)n2CCCN1CCOCC1 [Compound 21, 7-Aza-5,6-dihydro-6-(3-morpholinopropyl)-5,11-dioxo-11H-indeno[1,2-c]isoquinoline Hydrochloride] | – | 15.5 | – |
| COc1cc2c3c(n(CCCN4CCOCC4)c(=O)c2cc1OC)-c1ncccc1C3=O [Compound 22, 7-Aza-5,6-dihydro-6-(3-morpholinopropyl)-2,3-dimethoxy-5,11-dioxo-11H-indeno[1,2-c]isoquinoline Hydrochloride] | ++ | – | ability to unwind/intercalate into free DNA (SV40 DNA): inability to unwind/intercalate into DNA; concentration dependence of DNA cleavage band intensity (human recombinant Top1): concentration-dependent increase of intensity of DNA cleavage bands |
| O=C1c2cccnc2-c2c1c1ccc([N+](=O)[O-])cc1c(=O)n2CCCN1CCOCC1 [Compound 23, 7-Aza-5,6-dihydro-6-(3-morpholinopropyl)-3-nitro-5,11-dioxo-11H-indeno[1,2-c]isoquinoline Hydrochloride] | +++ | – | – |
| O=C1c2cccnc2-c2c1c1ccccc1c(=O)n2CCCn1ccnc1 [Compound 28, 7-Aza-5,6-dihydro-6-(3-(1H-imidazol-1-yl)propyl)-5,11-dioxo-11H-indeno[1,2-c]isoquinoline] | ++ | – | – |
| COc1cc2c3c(n(CCCn4ccnc4)c(=O)c2cc1OC)-c1ncccc1C3=O [Compound 29, 7-Aza-5,6-dihydro-6-(3-(1H-imidazol-1-yl)propyl)-2,3-dimethoxy-5,11-dioxo-11H-indeno[1,2-c]isoquinoline] | ++ | – | concentration dependence of DNA cleavage band intensity (human recombinant Top1): concentration-dependent increase of intensity of DNA cleavage bands |
| O=C1c2cccnc2-c2c1c1ccccc1c(=O)n2CCCNCCO [Compound 30, 7-Aza-5,6-dihydro-6-(3-(2-hydroxyethylamino)propyl)-5,11-dioxo-11H-indeno[1,2-c]isoquinoline Hydrochloride] | + | 1.29 | – |
| COc1cc2c3c(n(CCCNCCO)c(=O)c2cc1OC)-c1ncccc1C3=O [Compound 31, 7-Aza-5,6-dihydro-6-(3-(2-hydroxyethylamino)propyl)-2,3-dimethoxy-5,11-dioxo-11H-indeno[1,2-c]isoquinoline Hydrochloride] | – | 0.29 | concentration dependence of DNA cleavage band intensity (human recombinant Top1): behave similarly to 19 |
| COc1cc2c3c(n(CCCN)c(=O)c2cc1OC)-c1ncccc1C3=O [Compound 32, 7-Aza-5,6-dihydro-6-(3-aminopropyl)-2,3-dimethoxy-5,11-dioxo-11H-indeno[1,2-c]isoquinoline Hydrochloride] | – | 2.09 | concentration dependence of DNA cleavage band intensity (human recombinant Top1): behave similarly to 19 |
| CN(C)CCCn1c2c(c3ccccc3c1=O)C(=O)c1ccccc1-2 [Compound 33, reference compound] | +++ | – | – |
| CN(C)CCCn1c2c(c3ccc([N+](=O)[O-])cc3c1=O)C(=O)c1ccccc1-2 [Compound 35] | +++ | 9.77 | GI50 (melanoma UACC-62): 7.08 µM; GI50 (colon HCT-116): 6.46 µM; GI50 (renal SN12C): 4.17 µM |

From publication PMC3165090 (Journal of medicinal chemistry, 2011)
